Columns and labels:
[1] = Measurement of absorbance retention (A1 in PBS / A0 in dimethyl sulfoxide); assay type: physicochemical; details: A1/A0 at maximum-absorption wavelength; 2 μM in PBS vs 2 μM in dimethyl sulfoxide, within 5 minutes
Procedure: The absorbance retention calculated by Formula (I) is calculated as follows.
A colorant solution I is prepared by dissolving the colorant for fluorescent labeling in a soluble organic solvent so that the concentration is 2 μM. The absorption spectrum of the colorant solution I is measured using a spectrophotometer (U-4100, commercially available from Hitachi High-Tech Corporation), and the absorbance A0 at a maximum-absorption wavelength is determined.
In addition, a colorant dispersion II is prepared by dissolving the colorant for fluorescent labeling in a soluble organic solvent so that the concentration is 20 μM, and this is additionally diluted 10-fold with PBS so that the concentration is 2 μM. The absorption spectrum of the colorant dispersion II is measured using a spectrophotometer (U-4100, commercially available from Hitachi High-Tech Corporation), and the absorbance A1 at a maximum-absorption wavelength is determined. It is preferable to measure the absorbance under conditions at 25° C. In addition, it is desirable to measure the absorbance within 5 minutes after the […] is prepared. The colorant dispersion II can be obtained, for example, by diluting a colorant solution 10-fold with PBS at 25° C. and mixing by pipetting 10 times or more.
After each colorant solution was diluted 10-fold with dimethyl sulfoxide to obtain a colorant solution I with a colorant concentration of 2 μM, the absorption spectrum was measured using a spectrophotometer (U-4100, commercially available from Hitachi High-Tech Corporation), and the absorbance A0 at a maximum-absorption wavelength was obtained. In addition, after each colorant solution was diluted 10-fold with phosphate buffered saline (PBS) to obtain a colorant dispersion II with a colorant concentration of 2 μM, the absorption spectrum was measured immediately (within 5 minutes) using the spectrophotometer, and the absorbance A1 at a maximum-absorption wavelength was obtained. Using the obtained values of A0 and A1, the absorbance retention was calculated from Formula (I), and determined based on the following criteria.
• 4: absorbance retention 0.8 or more • 3: absorbance retention less than 0.8 to 0.5 or more • 2: absorbance retention less than 0.5 to 0.3 or more • 1: absorbance retention less than 0.3

[2] = Measurement of average particle size (Z average, dynamic light scattering) of colorant dispersed component in PBS dispersion; assay type: physicochemical; details: 20 μM DMSO colorant solution diluted 10-fold with PBS to 2 μM, measured within 5 minutes
Procedure: The average particle size of the colorant dispersed component contained in the colorant dispersion I can be measured as follows.
A colorant solution is obtained by dissolving a colorant for fluorescent labeling in an organic solvent that can dissolve the colorant for fluorescent labeling so that the concentration is 20 μM. The colorant solution is diluted 10-fold with PBS and mixed to prepare a colorant dispersion I with a concentration of 2 μM.
Here, the method of mixing the colorant solution and the PBS is not particularly limited, and for example, a method of adding a colorant solution to PBS is preferable. Mixing may be performed separately in a plurality of steps. The method of mixing a colorant solution and PBS is not particularly limited, and a method that can quickly achieve a uniform mixing state is desirable. As an example of the mixing method, mixing can be performed by well-known methods such as stirring with a stirrer, pipetting with a pipette, and using a Vortex mixer. The colorant dispersion I can be obtained, for example, by diluting a colorant solution 10-fold with PBS at 25° C. and mixing by pipetting 10 times or more.
The particle size distribution of the colorant dispersion I obtained as above is measured using a particle size distribution measuring device (Zetasizer Nano ZSP, commercially available from Spectris). It is preferable to measure the average particle size under conditions at 25° C. It is desirable to measure the average particle size within 5 minutes after the colorant dispersion I is prepared.
As the value of the average particle size, values such as a Z average particle size, a number average particle size, a volume average particle size, and an area average particle size can be used. In the present invention, the Z average particle size measured by a dynamic light scattering method is defined as the average particle size of the colorant dispersed component contained in the colorant dispersion I.
After each colorant solution was diluted 10-fold with phosphate buffered saline (PBS) to obtain a colorant dispersion I with a colorant concentration of 2 μM, measurement was performed immediately (within 5 minutes) using a particle size distribution measuring device (Zetasizer Nano ZSP, commercially available from Spectris). The Z average particle size of the colorant fine particles (the colorant dispersed component in the colorant dispersion I) of each colorant for fluorescent labeling was determined based on the following criteria. The determination results are shown in “average particle size” in Table 8.
• 4: Z average particle size 5 nm or more to less than 100 nm • 3: Z average particle size 100 nm or more to less than 300 nm • 2: Z average particle size 300 nm or more to 500 nm or less • 1: Z average particle size more than 500 nm

[3] = system: Hela cells; experiment: Evaluation of cell staining: fluorescence intensity by plate reader; assay type: cell-based; details: 1 μM colorant, 1 hour, washed, plate reader 780 to 800 nm
Procedure: Each colorant solution was diluted 20-fold with an Eagle's minimum essential medium (commercially available from FUJIFILM Wako Pure Chemical Corporation) to prepare a fluorescent labeling agent containing 1 μM of the colorant for fluorescent labeling.
Hela cells were seeded in a 96-well plate (1×10^4 cells/well), and cultured in an incubator (37° C., 5% CO2-containing Air, humidified environment) for 48 hours using an Eagle's minimum essential medium (commercially available from FUJIFILM Wako Pure Chemical Corporation) containing 10% Fetal Bovine Serum (FBS) and 1% penicillin-streptomycin. Then, the medium was removed, and the fluorescent labeling agent prepared above was added to each well. The sample was left in an incubator for 1 hour, and then washed with the Eagle's minimum essential medium (commercially available from FUJIFILM Wako Pure Chemical Corporation). Using a plate reader (SPARK, commercially available from Tecan Group Ltd.), the fluorescence intensity was measured in a range of 780 to 800 nm, and evaluated based on the following criteria. […] The evaluation results are shown in “fluorescence intensity during cell staining” in Table 8.
• 4: fluorescence intensity measurement value 2,000 or more • 3: fluorescence intensity measurement value less than 2,000 to 1,000 or more • 2: fluorescence intensity measurement value less than 1,000 to 500 or more • 1: fluorescence intensity measurement value less than 500

Absorbance retention [1]	Compound	Average particle size [2]	Fluorescence intensity during cell staining [3]
4 (absorbance retention 0.8 or more)	O=C(O)CCOc1ccc(-c2cc3c(o2)=CC2=C(C(F)(F)F)c4cc5oc(-c6ccc(OCCC(=O)O)cc6)cc5n4[B-](F)(F)[N+]=32)cc1 [Colorant for fluorescent labeling 23]	3 (Z average particle size 100 nm or more to less than 300 nm)	4 (fluorescence intensity measurement value 2,000 or more)
4 (absorbance retention 0.8 or more)	O=P(O)(O)CCOc1ccc(-c2cc3c(o2)=CC2=C(C(F)(F)F)c4cc5oc(-c6ccc(OCCP(=O)(O)O)cc6)cc5n4[B-](F)(F)[N+]=32)cc1 [Colorant for fluorescent labeling 24]	3 (Z average particle size 100 nm or more to less than 300 nm)	4 (fluorescence intensity measurement value 2,000 or more)
1 (absorbance retention less than 0.3)	Aluminum 1, 8, 15, 22-tetrakis(phenylthio)-29H, 31H-phthalocyanine chloride [Comparative compound 3]	1 (Z average particle size more than 500 nm)	1 (fluorescence intensity measurement value less than 500)

Compound	Absorbance retention [1]	Average particle size [2]	Fluorescence intensity during cell staining [3]
CCCCCCCCCCCCCCCCCCN1/C(=C/C=C/C=C/C=C/C2=[N+](CCCCCCCCCCCCCCCCCC)c3ccccc3C2(C)C)C(C)(C)c2ccccc21.[I-] [Comparative compound 6]	2 (absorbance retention less than 0.5 to 0.3 or more)	2 (Z average particle size 300 nm or more to 500 nm or less)	1 (fluorescence intensity measurement value less than 500)
